Test results: patent US20260373248A1, “DEGRADABLE PEPTOIDS” (Medici Therapeutics, Inc., priority 2023, published 2026)
Starred links: 1 amine or outer side, 2 acyl side, 3 side chain; linkers in the order of their positions; H or OH if unused. Non-standard residues stand in square brackets, D forms with d. Residues, ends and D or L forms follow the SMILES beside them. *: point of attachment. Gly(N-(3-decanoyloxypropyl)) = CCCCCCCCCC(=O)OCCCNCC(=O)O; N(3-lauroyloxypropyl)Gly = CCCCCCCCCCCC(=O)OCCCNCC(=O)O; N(2-decanoyloxyethyl)Gly = CCCCCCCCCC(=O)OCCNCC(=O)O; Gly(N-(CH2)3O-octanoyl) = CCCCCCCC(=O)OCCCNCC(=O)O; Gly(N-3-morpholinopropyl) = O=C(O)CNCCCN1CCOCC1; N(2-ethylhexyl)Gly = CCCCC(CC)CNCC(=O)O; X2 = CCCCCCC(CCCC)CN(CC(=O)[*:2])[*:1]; Gly(N-dodecyl) = CCCCCCCCCCCCNCC(=O)O; N(CH(CH2OH)2)Gly = O=C(O)CNC(CO)CO; N(octyl)Gly = CCCCCCCCNCC(=O)O; NHexGly = CCCCCCNCC(=O)O; For = O=C*

Experiments:
[1] = Delivery vehicle size and polydispersity by dynamic light scattering; type: physicochemical
Outline: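 Dynamic light scattering in PBS gave size and polydispersity of peptoid LNPs. These were dialyzed overnight at 4 °C into tris-sucrose buffer pH 7.4 after microfluidic 1:3 volume mixing of mRNA in pH 5.0 citrate with ethanol lipids (peptoid:DSPC:cholesterol:DMG-PEG2000 20:1.79:7.16:1.84 w/w).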

luciferase = assay: Luciferase expression after local (intramuscular or subcutaneous) administration of mRNA; type: in vivo; details: mRNA 0.01 mpk, 6 hours; for IM Flux: intramuscular; for SC Flux: subcutaneous
Outline: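 Bioluminescence read 6 hours after fLuc mRNA dosing (peptoid Nutshells; 0.01 mpk S.C. or I.M., 0.1 mpk intratumoral) in female Balb/c mice aged 6-8 weeks. D-luciferin injected IP, whole-body imaging after 10 minutes, then organ imaging; total photon flux per region of interest.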

firefly luciferase = assay: In vivo firefly luciferase expression after intravenous injection of fLuc mRNA delivery vehicles (IVIS imaging); set-up: species or system female Balb/c mice; details: for Total Flux (luciferase expression): fLuc mRNA, intravenous, Balb/c mice; for Total Flux: mice, 2.5 ug fLuc mRNA intravenously, 6 hours post-injection
Outline: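 Read-out is total photon flux per region of interest, from whole-body IVIS images taken 10 minutes after IP D-luciferin (30 mg/mL, 10 μL/g) and from excised organs. Female Balb/c mice aged 6-8 weeks received 2.5 ug fLuc mRNA Nutshells intravenously 6 hours before imaging.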

[2] = Peptoid quantity remaining in liver by HPLC-TOF mass spectrometry; type: in vivo; details: liver homogenate
Description: Peptoid quantity in liver was determined via high-performance liquid chromatography coupled with time-of-flight mass spectrometer (HPLC-TOF). The entire liver was weighed, and then two sections were isolated using a provided biopsy punch for liver homogenization. Liver homogenate sample was prepared by resuspending 20 mg liver tissue in 400 μL extraction solvent (IPA/MeOH=8/2) containing an internal standard (400 pg/μL) followed by bead homogenization (45 sec per cycle for 3-4 cycles). Homogenized samples were centrifuged at 12,000 rpm for 8 min at 6 °C. The resulting supernatant was collected and stored at −20 °C for further LC analysis. 5 μL of the resulting supernatant sample from solid or liquid tissue was injected into a BEH C8 column on an Agilent 1290 Infinity II liquid chromatograph coupled with an Agilent 6230 LC-TOF system. Concentrations of peptoids were determined by a linear calibration curve (linear range:0.2-50 μg/g for solid tissue). Standard calibration curve solutions were prepared by spiking untreated liver followed by homogenization and centrifugation.

hEPO = assay: Quantification of hEPO in serum after IV injection of mRNA (Human EPO ELISA); type: in vivo; details: Balb/c mice, 2.5 μg mRNA IV, serum after 6 hours
Outline: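 Balb/c mice received 2.5 μg mRNA encoding human EPO by IV injection; serum was collected after 6 hours. hEPO was measured by sandwich ELISA (biotin-conjugate, streptavidin-HRP, TMB, A450) against kit standards (mIU/mL) and an external standard (ng/mL), with values interpolated and corrected for dilution.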

mRNA = mRNA encapsulation (modified Quant-iT RiboGreen assay); type: physicochemical; details: for mean percent encapsulation of RNA: RiboGreen, without vs with Triton X-100; for % Encapsulation: mRNA
Outline: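 Encapsulated fraction was calculated by comparing RiboGreen signal (excitation 485 nm, emission 530 nm) of intact particles with that of particles lysed by a 10-min Triton X-100 treatment. Total mRNA concentration was taken from the lysed samples.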

[3] = DLS in PBS, peptoid:DSPC:Cholesterol:DMG-PEG2000 weight ratio 20:1.79:7.16:1.84, mRNA

CCCCCCCCCC(=O)OCCCN(CC(=O)N(CCCOC(=O)CCCCCCCCC)CC(=O)N(CCCCCC)CC(=O)N(CCCOC(=O)CCCCCCCCC)CC(=O)N(CCCOC(=O)CCCCCCCCC)CC(=O)N(CCCCCC)CC(N)=O)C(=O)CN(C=O)CCCN1CCOCC1 [Compound 108] (For-[Gly(N-3-morpholinopropyl)][Gly(N-(3-decanoyloxypropyl))][Gly(N-(3-decanoyloxypropyl))][NHexGly][Gly(N-(3-decanoyloxypropyl))][Gly(N-(3-decanoyloxypropyl))][NHexGly]-NH2)
PDI [1, 3]: 0.263 | Particle Size [1, 3]: 96.7 nm | Particle Size ([1]; formulation recipe F2): 95.3 nm | IM Flux (luciferase): 1.25E+08 p/s | SC Flux (luciferase): 1.74E+08 p/s | Total Flux (luciferase expression) (firefly luciferase; formulation recipe F2): 1.47E+09 p/s | Total Flux (firefly luciferase): 4.91E+09 p/s | % of injected dose remaining in liver [2]: 7.35% | hEPO (hEPO): 377 ng/mL | mean percent encapsulation of RNA (mRNA): 49.9% | % Encapsulation (mRNA; formulation recipe F2): 60.1%

CCCCCCCCCC(=O)OCCCN(CC(=O)N(CC(=O)N(CC(=O)N(CCCOC(=O)CCCCCCCCC)CC(=O)N(CC(N)=O)CC(CCCC)CCCCCC)CC(CC)CCCC)CC(CCCC)CCCCCC)C(=O)CN(CC(CC)CCCC)C(=O)CNC(CO)CO (centres unmarked) [Compound 61] (H-[N(CH(CH2OH)2)Gly][N(2-ethylhexyl)Gly][Gly(N-(3-decanoyloxypropyl))][X2][N(2-ethylhexyl)Gly][Gly(N-(3-decanoyloxypropyl))][X2]-NH2)
PDI [1, 3]: 0.081 | Particle Size [1, 3]: 75.4 nm | IM Flux (luciferase): 1.45E+08 p/s | SC Flux (luciferase): 1.99E+08 p/s | Total Flux (firefly luciferase): 1.96E+09 p/s | % of injected dose remaining in liver [2]: 13.39% | hEPO (hEPO): 428 ng/mL | mean percent encapsulation of RNA (mRNA): 95.1%

CCCCCCCCCCCCN(C=O)CC(=O)N(CCCOC(=O)CCCCCCC)CC(=O)N(CC(=O)N(CCCN1CCOCC1)CC(=O)N(CC(=O)N(CCCOC(=O)CCCCCCC)CC(=O)N(CCCCCCCCCCCC)CC(N)=O)CC(CC)CCCC)CC(CC)CCCC (centres unmarked) [Compound 116] (For-[Gly(N-dodecyl)][Gly(N-(CH2)3O-octanoyl)][N(2-ethylhexyl)Gly][Gly(N-3-morpholinopropyl)][N(2-ethylhexyl)Gly][Gly(N-(CH2)3O-octanoyl)][Gly(N-dodecyl)]-NH2)
PDI [1, 3]: 1.000 | Particle Size [1, 3]: 88.9 nm | Particle Size ([1]; formulation recipe F2): 71.4 nm | IM Flux (luciferase): 7.83E+07 p/s | SC Flux (luciferase): 3.53E+08 p/s | Total Flux (luciferase expression) (firefly luciferase; formulation recipe F2): 1.60E+09 p/s | Total Flux (firefly luciferase): 3.82E+09 p/s | % of injected dose remaining in liver [2]: 15.67% | hEPO (hEPO): 269 ng/mL | mean percent encapsulation of RNA (mRNA): 32.6% | % Encapsulation (mRNA; formulation recipe F2): 67.8%

CCCCCCCCCC(=O)OCCN(CC(N)=O)C(=O)CN(CC(CC)CCCC)C(=O)CN(CCOC(=O)CCCCCCCCC)C(=O)CN(CCOC(=O)CCCCCCCCC)C(=O)CN(CC(CC)CCCC)C(=O)CN(CCOC(=O)CCCCCCCCC)C(=O)CNC(CO)CO (centres unmarked) [Compound 56] (H-[N(CH(CH2OH)2)Gly][N(2-decanoyloxyethyl)Gly][N(2-ethylhexyl)Gly][N(2-decanoyloxyethyl)Gly][N(2-decanoyloxyethyl)Gly][N(2-ethylhexyl)Gly][N(2-decanoyloxyethyl)Gly]-NH2)
PDI [1, 3]: 0.234 | Particle Size [1, 3]: 102.4 nm | Particle Size ([1]; formulation recipe O3): 57.9 nm | Particle Size ([1]; formulation recipe O5): 62.4 nm | IM Flux (luciferase): 5.78E+07 p/s | SC Flux (luciferase): 8.24E+07 p/s | Total Flux (luciferase expression) (firefly luciferase; formulation recipe O3): 5.66E+08 p/s | Total Flux (luciferase expression) (firefly luciferase; formulation recipe O5): 6.97E+08 p/s | Total Flux (firefly luciferase): 2.42E+09 p/s | % of injected dose remaining in liver [2]: 24.83% | hEPO (hEPO): 551 ng/mL | mean percent encapsulation of RNA (mRNA): 23.8% | % Encapsulation (mRNA; formulation recipe O3): 86.9% | % Encapsulation (mRNA; formulation recipe O5): 89.6%

CCCCCCCCCC(=O)OCCCN(CC(=O)N(CC(=O)N(CCCCCC)CC(=O)N(CCCOC(=O)CCCCCCCCC)CC(=O)N(CC(=O)N(CCCCCC)CC(N)=O)CC(CC)CCCC)CC(CC)CCCC)C(=O)CNC(CO)CO (centres unmarked) [Compound 55] (H-[N(CH(CH2OH)2)Gly][Gly(N-(3-decanoyloxypropyl))][N(2-ethylhexyl)Gly][NHexGly][Gly(N-(3-decanoyloxypropyl))][N(2-ethylhexyl)Gly][NHexGly]-NH2)
PDI [1, 3]: 0.139 | Particle Size [1, 3]: 90.2 nm | IM Flux (luciferase): 5.29E+07 p/s | SC Flux (luciferase): 9.41E+07 p/s | Total Flux (firefly luciferase): 6.22E+08 p/s | % of injected dose remaining in liver [2]: 4.59% | hEPO (hEPO): 63.1 ng/mL | mean percent encapsulation of RNA (mRNA): 26.3%

CCCCCCCCCCCC(=O)OCCCN(CC(=O)N(CC(N)=O)CC(CC)CCCC)C(=O)CN(CCCCCCCC)C(=O)CN(CC(CC)CCCC)C(=O)CN(CCCOC(=O)CCCCCCCCCCC)C(=O)CN(CCCCCCCC)C(=O)CN(C=O)CCCN1CCOCC1 (centres unmarked) [Compound 74] (For-[Gly(N-3-morpholinopropyl)][N(octyl)Gly][N(3-lauroyloxypropyl)Gly][N(2-ethylhexyl)Gly][N(octyl)Gly][N(3-lauroyloxypropyl)Gly][N(2-ethylhexyl)Gly]-NH2)
PDI [1, 3]: 0.151 | Particle Size [1, 3]: 87.1 nm | Particle Size ([1]; formulation recipe D22): 87.1 nm | Particle Size ([1]; formulation recipe O5): 70.1 nm | Particle Size ([1]; formulation recipe O8): 71.7 nm | IM Flux (luciferase): 4.87E+07 p/s | SC Flux (luciferase): 2.11E+08 p/s | Total Flux (luciferase expression) (firefly luciferase; formulation recipe D22): 1.96E+09 p/s | Total Flux (luciferase expression) (firefly luciferase; formulation recipe O5): 1.92E+09 p/s | Total Flux (luciferase expression) (firefly luciferase; formulation recipe O8): 3.39E+09 p/s | Total Flux (firefly luciferase): 1.96E+09 p/s | % of injected dose remaining in liver [2]: bdl | hEPO (hEPO): 354 ng/mL | mean percent encapsulation of RNA (mRNA): 67.6% | % Encapsulation (mRNA; formulation recipe D22): 67.6% | % Encapsulation (mRNA; formulation recipe O5): 90.4% | % Encapsulation (mRNA; formulation recipe O8): 91.5%

CCCCCCCCCCCCN(C=O)CC(=O)N(CCCOC(=O)CCCCCCCCC)CC(=O)N(CC(=O)N(CCCN1CCOCC1)CC(=O)N(CC(=O)N(CCCOC(=O)CCCCCCCCC)CC(=O)N(CCCCCCCCCCCC)CC(N)=O)CC(CC)CCCC)CC(CC)CCCC (centres unmarked) [Compound 88] (For-[Gly(N-dodecyl)][Gly(N-(3-decanoyloxypropyl))][N(2-ethylhexyl)Gly][Gly(N-3-morpholinopropyl)][N(2-ethylhexyl)Gly][Gly(N-(3-decanoyloxypropyl))][Gly(N-dodecyl)]-NH2)
PDI [1, 3]: 0.118 | Particle Size [1, 3]: 73.1 nm | Particle Size ([1]; formulation recipe F2): 72.4 nm | IM Flux (luciferase): 4.29E+07 p/s | SC Flux (luciferase): 6.88E+07 p/s | Total Flux (luciferase expression) (firefly luciferase; formulation recipe F2): 1.59E+09 p/s | Total Flux (firefly luciferase): 3.77E+08 p/s | % of injected dose remaining in liver [2]: 16.59% | hEPO (hEPO): 109 ng/mL | mean percent encapsulation of RNA (mRNA): 7.4% | % Encapsulation (mRNA; formulation recipe F2): 71.8%
